According to ChEMBL document CHEMBL2434931, “Synthesis and antitumor activities of novel thiourea α-aminophosphonates from dehydroabietic acid” (Eur J Med Chem, 2013):
Calls of active or inactive are those of the source. The rule behind the calls is not given here.

Experiments:
HepG2 = experiment: Cytotoxicity against human HepG2 cells after 3 days by MTT assay; type: functional, cell-based; conditions: HepG2, 72 h
A549 [1] = experiment: Cytotoxicity against human A549 cells after 3 days by MTT assay; type: functional, cell-based; conditions: A549, 72 h
NCI-H460 = experiment: Cytotoxicity against human NCI-H460 cells after 3 days by MTT assay; type: functional, cell-based; conditions: NCI-H460, 72 h
SK-OV-3 = experiment: Cytotoxicity against human SKOV3 cells after 3 days by MTT assay; type: functional, cell-based; conditions: SK-OV-3, 72 h
A549 [2] = experiment: Induction of apoptosis in human A549 cells at 15 uM after 12 to 24 hrs by Hoechst 33258 staining-based fluorescence microscopic analysis; type: functional, cell-based
A549 [3] = experiment: Induction of apoptosis in human A549 cells assessed as early apoptotic cells at 20 uM after 12 hrs by Annexin V-propidium iodide staining-based FACS flow cytometric analysis (reference value: 0.2%); type: functional
A549 [4] = experiment: Induction of apoptosis in human A549 cells assessed as membrane blebbing at 15 uM after 12 to 24 hrs by AO/EB staining-based fluorescence microscopic analysis; type: functional, cell-based
A549 [5] = experiment: Induction of apoptosis in human A549 cells assessed as necrotic/late apoptotic cells at 25 uM after 12 hrs by Annexin V-propidium iodide staining-based FACS flow cytometric analysis (reference value: 0.4%); type: functional
A549 [6] = experiment: Induction of apoptosis in human A549 cells after 12 hrs by Annexin V-propidium iodide staining-based FACS flow cytometric analysis; type: functional, cell-based
A549 [7] = experiment: Induction of apoptosis in human A549 cells assessed as necrotic/late apoptotic cells at 20 uM after 12 hrs by Annexin V-propidium iodide staining-based FACS flow cytometric analysis (reference value: 0.4%); type: functional
A549 [8] = experiment: Cytotoxicity against human A549 cells assessed as necrotic cells at 15 uM after 12 to 24 hrs by AO/EB staining-based fluorescence microscopic analysis; type: cell-based; conditions: a549, 15 µM
A549 [9] = experiment: Induction of apoptosis in human A549 cells assessed as cell budding at 15 uM after 12 to 24 hrs by AO/EB staining-based fluorescence microscopic analysis; type: functional
A549 [10] = experiment: Induction of apoptosis in human A549 cells assessed as decrease in mitochondrial membrane potential at 15 uM after 12 to 24 hrs by JC-1 staining-based fluorescence microscopic analysis; type: functional, cell-based
A549 [11] = experiment: Induction of apoptosis in human A549 cells assessed as early apoptotic cells at 25 uM after 12 hrs by Annexin V-propidium iodide staining-based FACS flow cytometric analysis (reference value: 0.2%); type: functional
A549 [12] = experiment: Induction of apoptosis in human A549 cells assessed as DNA fragmentation at 15 uM after 12 to 24 hrs by TUNEL assay; type: functional, cell-based
A549 [13] = experiment: Induction of apoptosis in human A549 cells assessed as pycnosis at 15 uM after 12 to 24 hrs by AO/EB staining-based fluorescence microscopic analysis; type: functional, cell-based
A549 [14] = experiment: Induction of apoptosis in human A549 cells assessed as DNA ladder formation at 10 to 30 uM by agarose gel electrophoresis; type: functional, cell-based

Row | SMILES | IC50 (HepG2) [µM] | IC50 (A549 [1]) [µM] | IC50 (NCI-H460) [µM] | IC50 (SK-OV-3) [µM] | also measured
1 | CCOP(=O)(OCC)C(NC(=S)NC(=O)[C@]1(C)CCC[C@]2(C)c3ccc(C(C)C)cc3/C(=N\O)C[C@@H]12)c1cccc(Cl)c1 (stereo not given in full) | 13.2 | 19 | 28.4 | 12.3 | 
2 | CCOP(=O)(OCC)C(NC(=S)NC(=O)[C@]1(C)CCC[C@]2(C)c3ccc(C(C)C)cc3C(=O)C[C@@H]12)c1cccc(Br)c1 (stereo not given in full) | > 50 | 42.5 | 41.5 | 49.1 | 
3 | CCOP(=O)(OCC)C(NC(=S)NC(=O)[C@]1(C)CCC[C@]2(C)c3ccc(C(C)C)cc3C(=O)C[C@@H]12)c1ccccc1 (stereo not given in full) | 46.8 | 21.6 | 21.1 | 42.5 | 
4 | CCOP(=O)(OCC)C(NC(=S)NC(=O)[C@]1(C)CCC[C@]2(C)c3ccc(C(C)C)cc3C(=O)C[C@@H]12)c1cccc(F)c1 (stereo not given in full) | 37.1 | 33 | 39.8 | > 50 | 
5 | CCOP(=O)(OCC)C(NC(=S)NC(=O)[C@]1(C)CCC[C@]2(C)c3ccc(C(C)C)cc3C(=O)C[C@@H]12)c1cccc(Cl)c1 (stereo not given in full) | > 50 | 44.1 | > 50 | > 50 | 
6 | CCOP(=O)(OCC)C(NC(=S)NC(=O)[C@]1(C)CCC[C@]2(C)c3ccc(C(C)C)cc3/C(=N\O)C[C@@H]12)c1cccc(Br)c1 (stereo not given in full) | 42.8 | 34.7 | 30.2 | 37.7 | 
7 | CCOP(=O)(OCC)C(NC(=S)NC(=O)[C@]1(C)CCC[C@]2(C)c3ccc(C(C)C)cc3C(=O)C[C@@H]12)c1ccc(C)cc1 (stereo not given in full) | 15.2 | 22.2 | 24.8 | 11.8 | 
8 | CCOP(=O)(OCC)C(NC(=S)NC(=O)[C@]1(C)CCC[C@]2(C)c3ccc(C(C)C)cc3C(=O)C[C@@H]12)c1cccc2ccccc12 (stereo not given in full) | > 50 | 32.6 | > 50 | 27.3 | 
9 | CCOP(=O)(OCC)C(NC(=S)NC(=O)[C@]1(C)CCC[C@]2(C)c3ccc(C(C)C)cc3/C(=N\O)C[C@@H]12)c1ccc2ccccc2c1 (stereo not given in full) | 20.9 | > 50 | 26.8 | 40.6 | 
10 | CCOP(=O)(OCC)C(NC(=S)NC(=O)[C@]1(C)CCC[C@]2(C)c3ccc(C(C)C)cc3C(=O)C[C@@H]12)c1ccccc1F (stereo not given in full) | 49.3 | > 50 | 36.4 | 45.1 | 
11 | CCOP(=O)(OCC)C(NC(=S)NC(=O)[C@]1(C)CCC[C@]2(C)c3ccc(C(C)C)cc3C(=O)C[C@@H]12)c1ccccc1Cl (stereo not given in full) | 39.9 | 22.5 | 36.1 | 27.9 | 
12 | CCOP(=O)(OCC)C(NC(=S)NC(=O)[C@]1(C)CCC[C@]2(C)c3ccc(C(C)C)cc3/C(=N\O)C[C@@H]12)c1cccc(C)c1 (stereo not given in full) | 12.5 | 12.9 | 37.9 | 28.6 | 
13 | CCOP(=O)(OCC)C(NC(=S)NC(=O)[C@]1(C)CCC[C@]2(C)c3ccc(C(C)C)cc3/C(=N\O)C[C@@H]12)c1ccccc1OC (stereo not given in full) | 8.62 | 27.1 | 18.6 | 17.9 | 
14 | CCOP(=O)(OCC)C(NC(=S)NC(=O)[C@]1(C)CCC[C@]2(C)c3ccc(C(C)C)cc3/C(=N\O)C[C@@H]12)c1ccccc1 (stereo not given in full) | 27.2 | 27 | 36.7 | 22.1 | 
15 | O=c1[nH]cc(F)c(=O)[nH]1 [FLUOROURACIL] | 30 | 34.3 | 44 | 24.4 | 
16 | CCOP(=O)(OCC)C(NC(=S)NC(=O)[C@]1(C)CCC[C@]2(C)c3ccc(C(C)C)cc3C(=O)C[C@@H]12)c1ccc(Cl)cc1 (stereo not given in full) | 39.5 | 30.3 | 41.2 | 31.4 | 
17 | CCOP(=O)(OCC)C(NC(=S)NC(=O)[C@]1(C)CCC[C@]2(C)c3ccc(C(C)C)cc3/C(=N\O)C[C@@H]12)c1ccccc1F (stereo not given in full) | 9.73 | 9.16 | 19.3 | 19.9 | 

Row | SMILES | IC50 (HepG2) [µM] | IC50 (A549 [1]) [µM] | IC50 (NCI-H460) [µM] | IC50 (SK-OV-3) [µM] | also measured
18 | CCOP(=O)(OCC)C(NC(=S)NC(=O)[C@]1(C)CCC[C@]2(C)c3ccc(C(C)C)cc3/C(=N\O)C[C@@H]12)c1ccc(Br)cc1 (stereo not given in full) | 26.9 | 19 | 22.6 | 12.7 | 
19 | CCOP(=O)(OCC)C(NC(=S)NC(=O)[C@]1(C)CCC[C@]2(C)c3ccc(C(C)C)cc3C(=O)C[C@@H]12)c1ccc(OC)cc1 (stereo not given in full) | > 50 | 26.1 | 24.5 | 49.9 | 
20 | CCOP(=O)(OCC)C(NC(=S)NC(=O)[C@]1(C)CCC[C@]2(C)c3ccc(C(C)C)cc3/C(=N\O)C[C@@H]12)c1ccc(F)cc1 (stereo not given in full) | 13.1 | 7 | 17.7 | 11.4 | Activity (A549 [2]): Active; Activity (A549 [3]): 14.4%; Activity (A549 [4]): Active; Activity (A549 [5]): 17.7%; Activity (A549 [6]): Dose-dependent effect; Activity (A549 [7]): 5.3%; Activity (A549 [8]): Non-toxic; Activity (A549 [9]): Active; Activity (A549 [10]): Active; Activity (A549 [11]): 34%; Activity (A549 [12]): Active; Activity (A549 [13]): Active; Activity (A549 [14]): Active
21 | CC(C)c1ccc2c(c1)CC[C@H]1[C@](C)(C(=O)O)CCC[C@]21C [DEHYDROABIETIC ACID] | 85 | 79.5 | 84.5 | 84 | 
22 | CCOP(=O)(OCC)C(NC(=S)NC(=O)[C@]1(C)CCC[C@]2(C)c3ccc(C(C)C)cc3/C(=N\O)C[C@@H]12)c1ccc(C)cc1 (stereo not given in full) | 10.9 | 17.9 | 22.4 | 8.95 | 
23 | CCOP(=O)(OCC)C(NC(=S)NC(=O)[C@]1(C)CCC[C@]2(C)c3ccc(C(C)C)cc3C(=O)C[C@@H]12)c1cccc(C)c1 (stereo not given in full) | > 50 | 37.1 | 42.7 | > 50 | 
24 | CCOP(=O)(OCC)C(NC(=S)NC(=O)[C@]1(C)CCC[C@]2(C)c3ccc(C(C)C)cc3/C(=N\O)C[C@@H]12)c1cccc2ccccc12 (stereo not given in full) | 27.9 | 28 | 37.1 | 40.1 | 
25 | CCOP(=O)(OCC)C(NC(=S)NC(=O)[C@]1(C)CCC[C@]2(C)c3ccc(C(C)C)cc3C(=O)C[C@@H]12)c1cccc(OC)c1 (stereo not given in full) | 15.8 | 14.1 | 11.5 | 8.41 | 
26 | CCOP(=O)(OCC)C(NC(=S)NC(=O)[C@]1(C)CCC[C@]2(C)c3ccc(C(C)C)cc3C(=O)C[C@@H]12)c1ccc2ccccc2c1 (stereo not given in full) | 25.2 | 23.2 | 19.8 | 24.6 | 
27 | CCOP(=O)(OCC)C(NC(=S)NC(=O)[C@]1(C)CCC[C@]2(C)c3ccc(C(C)C)cc3/C(=N\O)C[C@@H]12)c1ccc(Cl)cc1 (stereo not given in full) | 21.4 | 9.66 | 23.8 | 16.6 | 
28 | CCOP(=O)(OCC)C(NC(=S)NC(=O)[C@]1(C)CCC[C@]2(C)c3ccc(C(C)C)cc3/C(=N\O)C[C@@H]12)c1cccc(F)c1 (stereo not given in full) | 17.5 | 28.9 | 13.3 | 25.2 | 
29 | CCOP(=O)(OCC)C(NC(=S)NC(=O)[C@]1(C)CCC[C@]2(C)c3ccc(C(C)C)cc3/C(=N\O)C[C@@H]12)c1ccccc1Cl (stereo not given in full) | > 50 | 32.8 | 29.1 | 40.2 | 
30 | CCOP(=O)(OCC)C(NC(=S)NC(=O)[C@]1(C)CCC[C@]2(C)c3ccc(C(C)C)cc3/C(=N\O)C[C@@H]12)c1ccc(OC)cc1 (stereo not given in full) | 17 | 23.6 | 38.5 | 30.8 | 
31 | CCOP(=O)(OCC)C(NC(=S)NC(=O)[C@]1(C)CCC[C@]2(C)c3ccc(C(C)C)cc3C(=O)C[C@@H]12)c1ccc(Br)cc1 (stereo not given in full) | > 50 | 49.6 | 27.9 | 36.9 | 
32 | CCOP(=O)(OCC)C(NC(=S)NC(=O)[C@]1(C)CCC[C@]2(C)c3ccc(C(C)C)cc3C(=O)C[C@@H]12)c1ccccc1OC (stereo not given in full) | > 50 | 19.9 | 29.5 | 23.6 | 
33 | CCOP(=O)(OCC)C(NC(=S)NC(=O)[C@]1(C)CCC[C@]2(C)c3ccc(C(C)C)cc3C(=O)C[C@@H]12)c1ccc(F)cc1 (stereo not given in full) | 45.4 | 17.4 | 22.4 | 30.2 | 
